Measured values from PubChem BioAssay (NCI).
Several values for one entry are separate records, joined by “and”; a condition that tells them apart may be missing. Equal values may be shown once.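 Tested at 5 concentrations; 48 h exposure; 96-well plates; endpoints linearly interpolated, else capped at highest concentration. At the GI50, growth is halved. TGI is the concentration that stops growth completely.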

Tests used:
Test in all cases: NCI anticancer screen, dose series, 48 h
SK-MEL-28 melanoma = test system: SK-MEL-28 melanoma
LOX IMVI melanoma = test system: LOX IMVI melanoma
NCI-H23 lung = test system: NCI-H23 lung
MDA-N = test system: MDA-N
CCRF-CEM leukemia = test system: CCRF-CEM leukemia
PC-3 prostate = test system: PC-3 prostate
MDA-MB-435 = test system: MDA-MB-435
SN12C renal = test system: SN12C renal
K-562 leukemia = test system: K-562 leukemia
NCI-H522 lung = test system: NCI-H522 lung
T-47D breast = test system: T-47D breast
RXF 393 renal = test system: RXF 393 renal
HOP-62 NSCLC = test system: HOP-62 NSCLC
UACC-257 melanoma = test system: UACC-257 melanoma
XF 498 CNS = test system: XF 498 CNS
HOP-18 NSCLC = test system: HOP-18 NSCLC

Structure (SMILES) | TGI (SK-MEL-28 melanoma) | TGI (LOX IMVI melanoma) [µM] | TGI (NCI-H23 lung) [µM] | TGI (MDA-N) [µM] | TGI (CCRF-CEM leukemia) | TGI (PC-3 prostate) | TGI (MDA-MB-435) | TGI (SN12C renal) | TGI (K-562 leukemia) | TGI (NCI-H522 lung) | TGI (T-47D breast) | TGI (RXF 393 renal) [µM] | TGI (HOP-62 NSCLC) [µM] | TGI (UACC-257 melanoma) | TGI (XF 498 CNS) [µM] | TGI (HOP-18 NSCLC) [µM] | GI50 (LOX IMVI melanoma) [µM] | GI50 (K-562 leukemia) | GI50 (RXF 393 renal) [µM] | GI50 (NCI-H23 lung) [µM]
COC(=O)C(CC(C)C)NC(=O)C(NC(=O)c1ccc(-c2ccc(Cl)cc2Cl)o1)C(C)C (stereo not given) | > 100 µM | 30.9 | > 100 | > 100 | 33.2 µM | > 100 µM | > 100 µM | 39.2 µM | 53.1 µM | 55.5 µM | > 100 µM | 47.2 | 65.4 | 64.9 µM | – | – | – | – | – | –
CCOC(=O)Cc1cc(OC)c(OC)cc1/C(Cl)=C(\CO)c1ccc(OC)c(OC)c1 | > 100 µM | > 100 | > 100 | – | > 100 µM | – | – | > 100 µM | > 100 µM | – | – | > 100 | – | > 100 µM | 49.2 | > 100 | – | – | – | –
O=C(Nc1ccc([N+](=O)[O-])cc1)Nn1cnnc1 | > 100 µM | > 100 | 48.8 | > 100 | > 100 µM | > 100 µM | > 100 µM | – | > 100 µM | > 100 µM | > 100 µM | – | > 100 | > 100 µM | – | – | – | – | – | –
CCNC(=O)C(C)C1CCC2(C)C=CC(=O)C(C)=C2C1O (stereo not given) | > 100 µM | > 100 | > 100 | – | > 100 µM | – | – | > 100 µM | > 100 µM | > 100 µM | – | > 100 | > 100 | > 100 µM | > 100 | > 100 | – | – | – | –
Nc1nc(Nc2ccc(Cl)c(Cl)c2)nc2nc[nH]c12 | – | 36.9 | 34.9 | 33.5 | 41 µM | 41.2 µM | 32 µM | 44.6 µM | 47.4 µM | 29.3 µM | 25.1 µM | 20.1 | 26.1 | 32.7 µM | – | – | – | – | – | –
COc1cc(OC2OC(CO)C(O)C(O)C2O)c2c(O)c3c(=O)cc(C)oc3cc2c1 (stereo not given) | > 100 µM | > 100 | > 100 | – | > 100 µM | > 100 µM | > 100 µM | – | > 100 µM | > 100 µM | > 100 µM | – | > 100 | > 100 µM | – | – | – | – | – | –
FC(F)(F)c1ccc2c(c1)N(CCCNCCN1CCOCC1)c1ccccc1S2 | 17.3 µM | 21.2 | 24.7 | – | 30.4 µM | – | – | 26.9 µM | 10.2 µM | 30.6 µM | – | 9.11 | 27.1 | 23.3 µM | 15.2 | – | – | – | – | –
OCC#CCNCl | > 100 µM | > 100 | > 100 | – | > 100 µM | – | – | > 100 µM | > 100 µM | > 100 µM | – | > 100 | > 100 | > 100 µM | > 95.2 | > 100 | – | – | – | –
N#C/C(=C\c1ccncc1)c1csc2ccccc12 | > 100 µM | 47.9 | > 79.8 | – | 55.8 µM | – | – | > 74.8 µM | 50.8 µM | 41.9 µM | – | > 83.1 | 63.3 | > 75.3 µM | 46.3 | 99.7 | – | – | – | –
COc1ccccc1/C=C(/C)[N+](=O)[O-] | 5.64 µM and 4.97 µM | 2.1 | 5.81 | – | 13 µM and > 100 µM | 6.5 µM and 5.37 µM | 9.18 µM and 3.64 µM | 4.96 µM and 4.41 µM | 5.15 µM and 7.34 µM | 2.91 µM and 3.2 µM | 4.64 µM and 3.37 µM | 4.74 | > 100 | 3.4 µM and 3.53 µM | – | – | 0.263 | 0.688 µM and 1.71 µM | 1.74 | –
CCCCCC(=O)N[C@@H](c1ccco1)[C@@H](O)C(=O)O[C@H]1C[C@@]2(O)[C@@H](OC(=O)c3ccccc3)[C@@H]3[C@]4(OC(C)=O)CO[C@@H]4C[C@H](O)[C@@]3(C)C(=O)[C@H](OC(C)=O)C(=C1C)C2(C)C | – | – | > 25 | – | – | – | – | – | – | 0.00228 µM | – | – | > 25 | – | – | – | – | – | 0.000206 | 0.000239
S=c1sc2c(s1)SC(c1ccccc1)CS2 (stereo not given) | > 100 µM | > 100 | > 100 | – | > 100 µM | – | – | > 100 µM | > 100 µM | > 100 µM | – | 91.5 | > 100 | > 100 µM | – | > 100 | – | – | – | –
Cc1ccc(/C=C2\Sc3scc(-c4ccccc4)[n+]3C2=O)cc1 | > 100 µM | > 54.5 | 46.4 | > 67.1 | 32.9 µM | > 100 µM | > 44.3 µM | > 54.2 µM | 31.5 µM | 19.6 µM | > 100 µM | 90.2 | > 100 | > 62.3 µM | – | – | – | – | – | –
O=C(NN1C(=O)C(Cl)C1c1ccccc1O)c1ccccc1O (stereo not given) | > 100 µM | – | > 100 | – | 70.6 µM | – | – | > 100 µM | > 100 µM | > 100 µM | – | > 100 | > 100 | > 100 µM | – | – | – | – | – | –
Brc1ccc(C2C3CSc4ccccc4C3=NN2c2ccccc2)cc1 (stereo not given) | > 100 µM | > 100 | > 100 | > 100 | > 100 µM | > 100 µM | > 100 µM | > 100 µM | > 100 µM | – | 86.3 µM | > 100 | > 100 | 95.6 µM | – | – | – | – | – | –
Cc1c(O)c(=O)ccn1CCN | > 100 µM | > 100 | > 100 | – | > 100 µM | – | – | > 100 µM | > 100 µM | > 100 µM | – | > 100 | – | > 100 µM | – | > 100 | – | – | – | –
C[N+](C)(CCCCCC[N+](C)(C)CCCN1C(=O)c2cccc3cccc(c23)C1=O)CCCN1C(=O)c2cccc3cccc(c23)C1=O | > 100 µM | > 100 | > 100 | > 100 | > 100 µM | > 100 µM | > 100 µM | > 100 µM | > 100 µM | > 100 µM | > 100 µM | > 100 | – | > 100 µM | – | – | – | – | – | –
O=S(O)CCCCCSSc1ccccc1 | > 100 µM | 38.4 | > 100 | – | 50.3 µM | – | – | > 100 µM | > 100 µM | 42 µM | – | 89.2 | > 100 | > 100 µM | 72.3 | – | – | – | – | –
C/C(=C/C(=O)Nc1ccccc1)Nc1onc(C)c1C | > 100 µM | > 100 | > 100 | – | > 100 µM | – | – | > 100 µM | > 100 µM | > 100 µM | – | > 100 | > 100 | > 100 µM | > 100 | > 100 | – | – | – | –
CC(CSC(=N)N)C(N)=O (stereo not given) | > 100 µM | > 100 | > 100 | > 100 | > 100 µM | > 100 µM | > 100 µM | > 100 µM | > 100 µM | > 100 µM | > 100 µM | > 100 | > 100 | > 100 µM | – | – | – | – | – | –
